For assay [1], the system named is SKBR3 (PI3Kα-Wild Type) cell line. Put plainly: HTRF phospho-AKT(S473) cell assay in SKBR3 cells. In kind it is cell-based, human. The conditions noted are these: Homo sapiens, SK-BR-3; SKBR3 (PI3Kα-Wild Type) cells, HTRF phospho-AKT(S473), 2 hours compound incubation, PDGF-BB stimulated. The method, boiled down: (§1)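 HTRF read-out of phospho-AKT(S473) in lysates gave IC50 values after 2 h compound exposure at 37° C. Dose series was 12 points at 1:3, topping at 5 μM for T47D and 10 μM for SKBR3. Only SKBR3 received 70 ng/ml PDGF-BB during the last 15 minutes.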
Background: Time-resolved FRET reads energy transfer from a long-lived donor to a nearby acceptor.

For another assay, the target named is PI3Kα (Homo sapiens, UniProt P42336). Put plainly: PI3Kα enzyme assay (Transcreener ADP2 TR-FRET Red Assay). The conditions noted are these: purified recombinant full-length protein; 2 hours pre-incubation with compound; read-out: PI3Kα WT IC50. In kind it is biochemical. On the procedure: (§2) Activity against PI3Kα and PI3Kα H1047R enzymes were determined in biochemical assays using purified recombinant full-length proteins with the Transcreener ADP^2 TR-FRET Red Assay from Bellbrook Labs. (Catalogue number 3011-10K). Test compounds were dissolved in DMSO and were tested in 11 point 1:3 serial dilutions, typical final concentration range from 50,000 nM to 0.85 nM. Enzymes were pre-incubated with compounds for 2 hours at room temperature prior to initiating the reactions. Assays were initiated with a 2×ATP/PI(4,5)P2 diC8 substrate mixture. After 60 minutes at room temperature, the reactions were quenched with detection reagent and incubated for an additional 60 minutes at room temperature. The plates were read using a multimode reader and the emission ratio of 665 nm to 615 nm was determined. This ratio was converted to percent of control (POC). [1-(high control-sample signal)/(high control-low control)]*100. Wells without compound were used to determine high control values and wells without enzyme were used to determine low control values. The POC values were fit using a four-parameter logistic model and the value where the fit curve was equal to 50 POC was reported as the IC50 using the Signals VitroVivo software package (PerkinElmer). Final assay conditions were: 40 mM HEPES pH 7.5, 20 mM NaCl, 25 mM MgCl2, 0.01% Triton X-100. The enzyme source, catalogue number, final enzyme concentration, and final ATP and PI(4,5)P2 diC8 concentration can be found in the table E10 below.

The test system of assay [2] is T47D (PI3Kα-H1047R) cell line. Put plainly: HTRF phospho-AKT(S473) cell assay in T47D cells. The format is cell-based, human. The following applies: Homo sapiens; T47D (PI3Kα-H1047R) cells, HTRF phospho-AKT(S473), 2 hours compound incubation. The essentials: as §1
The target in the next assay is PI3Kα H1047R (Homo sapiens, UniProt P42336, H1047R). Put plainly: PI3Kα H1047R enzyme assay (Transcreener ADP2 TR-FRET Red Assay). The following applies: purified recombinant full-length protein; 2 hours pre-incubation with compound. The format is biochemical. On the procedure:
as §2

Bounds are passed on as bounds.

Chain of PI3Kα H1047R (P42336 whole entry H1047R): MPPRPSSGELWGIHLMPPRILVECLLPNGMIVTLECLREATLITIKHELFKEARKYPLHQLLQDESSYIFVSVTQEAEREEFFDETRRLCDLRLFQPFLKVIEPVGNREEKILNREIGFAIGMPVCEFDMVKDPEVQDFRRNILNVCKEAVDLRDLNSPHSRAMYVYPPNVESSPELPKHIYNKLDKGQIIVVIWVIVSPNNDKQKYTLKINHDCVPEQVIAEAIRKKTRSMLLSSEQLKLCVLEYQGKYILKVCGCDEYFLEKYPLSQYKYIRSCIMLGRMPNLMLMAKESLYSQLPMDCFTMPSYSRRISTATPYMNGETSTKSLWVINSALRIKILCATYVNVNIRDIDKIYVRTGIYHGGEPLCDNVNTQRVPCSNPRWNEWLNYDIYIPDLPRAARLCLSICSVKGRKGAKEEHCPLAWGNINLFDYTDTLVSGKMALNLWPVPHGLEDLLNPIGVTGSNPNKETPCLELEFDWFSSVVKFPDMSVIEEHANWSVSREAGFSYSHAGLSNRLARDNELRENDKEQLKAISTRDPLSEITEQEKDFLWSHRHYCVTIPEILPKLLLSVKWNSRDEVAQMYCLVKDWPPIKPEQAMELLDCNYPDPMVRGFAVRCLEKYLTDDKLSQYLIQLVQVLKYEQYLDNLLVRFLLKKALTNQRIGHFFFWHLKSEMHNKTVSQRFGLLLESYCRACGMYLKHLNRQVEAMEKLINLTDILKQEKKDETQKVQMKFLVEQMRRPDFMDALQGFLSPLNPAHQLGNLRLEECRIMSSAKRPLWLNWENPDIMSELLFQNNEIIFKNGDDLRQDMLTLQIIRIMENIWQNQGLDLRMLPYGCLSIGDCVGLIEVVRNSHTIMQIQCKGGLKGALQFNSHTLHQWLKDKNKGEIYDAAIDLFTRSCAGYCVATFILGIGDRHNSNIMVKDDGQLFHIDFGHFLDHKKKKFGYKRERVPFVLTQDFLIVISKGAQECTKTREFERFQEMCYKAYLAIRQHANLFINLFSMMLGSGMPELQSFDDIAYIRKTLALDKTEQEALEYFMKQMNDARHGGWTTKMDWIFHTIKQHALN
Chain of PI3Kα H1047R (P27986 2-724 partner): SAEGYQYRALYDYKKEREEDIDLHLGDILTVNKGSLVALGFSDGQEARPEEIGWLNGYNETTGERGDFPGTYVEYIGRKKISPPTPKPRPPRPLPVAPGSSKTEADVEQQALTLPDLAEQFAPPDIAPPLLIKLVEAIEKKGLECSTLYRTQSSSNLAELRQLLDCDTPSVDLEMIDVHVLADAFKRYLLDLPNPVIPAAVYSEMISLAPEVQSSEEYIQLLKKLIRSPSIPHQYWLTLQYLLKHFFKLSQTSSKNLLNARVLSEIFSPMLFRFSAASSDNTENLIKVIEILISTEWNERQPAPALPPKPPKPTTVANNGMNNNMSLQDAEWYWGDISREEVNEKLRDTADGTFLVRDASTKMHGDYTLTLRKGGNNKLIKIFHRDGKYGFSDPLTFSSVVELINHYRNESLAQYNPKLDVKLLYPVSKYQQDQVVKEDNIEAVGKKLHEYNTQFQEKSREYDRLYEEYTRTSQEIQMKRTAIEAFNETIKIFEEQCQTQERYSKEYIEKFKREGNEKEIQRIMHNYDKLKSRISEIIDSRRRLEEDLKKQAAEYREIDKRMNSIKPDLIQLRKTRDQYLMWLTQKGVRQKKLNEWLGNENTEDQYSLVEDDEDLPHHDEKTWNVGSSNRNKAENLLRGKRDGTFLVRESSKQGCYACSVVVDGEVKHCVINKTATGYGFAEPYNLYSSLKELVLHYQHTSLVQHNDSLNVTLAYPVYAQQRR
Chain of PI3Kα (P42336 whole entry): as the sequence (P42336 whole entry H1047R) above, with R1047H counted along it
Chain of PI3Kα (P27986 2-724 partner): as the sequence (P27986 2-724 partner) above

By IC50 is commonly meant the point on the concentration scale where inhibition reaches its midpoint. For `Cc1ccc(N[C@H](C)c2cccc3c(=O)n(C)c(N4Cc5ccc(F)cc5C4)nc23)c(C(=O)NS(C)(=O)=O)n1` [Compound 2, (R)-3-((1-(2-(5-fluoroisoindolin-2-yl)-3-methyl-4-oxo-3,4-dihydroquinazolin-8-yl)ethyl)amino)-6-methyl-N-(methylsulfonyl) picolinamide], the IC50 in assay [1] is at least 5 µM; at PI3Kα, at least 1 µM; in assay [2], 1 to 5 µM; on PI3Kα H1047R, at least 1 µM.
In the case of `C[C@@H](Nc1ccc(Cl)nc1C(=O)NS(C)(=O)=O)c1cc(F)cc2c(=O)n(C)c(N3CCc4ccccc4C3)nc12` [Compound 31, (R)-6-chloro-3-((1-(2-(3,4-dihydroisoquinolin-2(1H)-yl)-6-fluoro-3-methyl-4-oxo-3,4-dihydroquinazolin-8-yl)ethyl)amino)-N-(methylsulfonyl) picolinamide], the IC50 was 1 to 5 µM in assay [1], at least 1 µM at PI3Kα, 0.25 to 0.5 µM in assay [2] and 0.1 to 0.25 µM on PI3Kα H1047R.
The matching figures for `Cc1cc([C@@H](C)Nc2ccc(Cl)nc2C(=O)NS(C)(=O)=O)c2nc(OCc3cccnc3)n(C)c(=O)c2c1` [Compound 56, (R)-6-chloro-3-((1-(3,6-dimethyl-4-oxo-2-(pyridin-3-ylmethoxy)-3,4-dihydroquinazolin-8-yl)ethyl)amino)-N-(methylsulfonyl) picolinamide]: 1 to 5 µM, at least 1 µM, 0.25 to 0.5 µM and at least 1 µM.
The matching figures for `C[C@@H](Nc1ccc(Cl)[nH]c1=O)c1cc(F)cc2c(=O)n(C)c(N3Cc4ccc(F)cc4C3)nc12` [Compound 99, (R)-8-(1-((6-chloro-2-oxo-1,2-dihydropyridin-3-yl)amino)ethyl)-6-fluoro-2-(5-fluoroisoindolin-2-yl)-3-methylquinazolin-4(3H)-one]: at least 5 µM, at least 1 µM, 0.5 to 1 µM and 0.1 to 0.25 µM.
Regarding `Cc1cc([C@@H](C)Nc2ccc(Cl)nc2S(N)(=O)=O)c2nc(N3Cc4ccc(F)cc4C3)n(C)c(=O)c2c1` [Compound 76, (R)-6-chloro-3-((1-(2-(5-fluoroisoindolin-2-yl)-3,6-dimethyl-4-oxo-3,4-dihydroquinazolin-8-yl)ethyl)amino)pyridine-2-sulfonamide], the IC50 was 1 to 5 µM in assay [1], at least 1 µM on PI3Kα, 0.25 to 0.5 µM in assay [2] and below 0.1 µM at PI3Kα H1047R.
Regarding `Cc1cc([C@@H](C)Nc2ccc(Cl)nc2C(=O)NS(C)(=O)=O)c2nc(NC3CCCC3)n(C)c(=O)c2c1` [Compound 11, (R)-6-chloro-3-((1-(2-(cyclopentylamino)-3,6-dimethyl-4-oxo-3,4-dihydroquinazolin-8-yl)ethyl)amino)-N-(methylsulfonyl) picolinamide], the IC50 is at least 5 µM in assay [1], at least 1 µM at PI3Kα, 0.25 to 0.5 µM in assay [2] and 0.25 to 0.5 µM on PI3Kα H1047R.
On to `Cc1cc([C@@H](C)Nc2ccc(Cl)nc2C(=O)NS(C)(=O)=O)c2nc(N(C)CC3CC3)n(C)c(=O)c2c1` [Compound 14, (R)-6-chloro-3-((1-(2-((cyclopropylmethyl) (methyl)amino)-3,6-dimethyl-4-oxo-3,4-dihydroquinazolin-8-yl)ethyl)amino)-N-(methylsulfonyl) picolinamide], for which the IC50 in assay [1] is 1 to 5 µM; on PI3Kα it was at least 1 µM; in assay [2], 0.25 to 0.5 µM; on PI3Kα H1047R, 0.25 to 0.5 µM.
For the molecule `CCn1ncc2c1CN(c1nc3c([C@@H](C)Nc4ccc(Cl)nc4C(=O)NS(C)(=O)=O)cc(C)cc3c(=O)n1C)C2` [Compound 45, (R)-6-chloro-3-((1-(2-(1-ethyl-4,6-dihydropyrrolo[3,4-c]pyrazol-5(1H)-yl)-3,6-dimethyl-4-oxo-3,4-dihydroquinazolin-8-yl)ethyl)amino)-N-(methylsulfonyl) picolinamide], the IC50 in assay [1] is 1 to 5 µM; at PI3Kα, 0.5 to 1 µM; in assay [2] it was below 0.25 µM; on PI3Kα H1047R, 0.1 to 0.25 µM.
The matching figures for `CCC(=O)NS(=O)(=O)c1nc(Cl)ccc1N[C@H](C)c1cc(C)cc2c(=O)n(C)c(N3Cc4ccc(F)cc4C3)nc12` [Compound 81, (R)-N-((6-chloro-3-((1-(2-(5-fluoroisoindolin-2-yl)-3,6-dimethyl-4-oxo-3,4-dihydroquinazolin-8-yl)ethyl)amino)pyridin-2-yl)sulfonyl)propionamide]: at least 5 µM, at least 1 µM, 0.25 to 0.5 µM and below 0.1 µM.
With `Cc1cc([C@@H](C)Nc2ccc(Cl)nc2C(=O)NS(C)(=O)=O)c2nc(NCC3(C(F)(F)F)CC3)n(C)c(=O)c2c1` [Compound 24, (R)-6-chloro-3-((1-(3,6-dimethyl-4-oxo-2-(((1-(trifluoromethyl)cyclopropyl)methyl)amino)-3,4-dihydroquinazolin-8-yl)ethyl)amino)-N-(methylsulfonyl) picolinamide], the half-maximal inhibitory concentration (IC50) is 1 to 5 µM in assay [1], at least 1 µM on PI3Kα, 0.25 to 0.5 µM in assay [2] and 0.25 to 0.5 µM at PI3Kα H1047R.
Turning to `Cc1cc([C@@H](C)Nc2ccc(F)cc2C(=O)NS(C)(=O)=O)c2nc(N3CCC(F)(F)CC3)n(C)c(=O)c2c1` [Compound 62, (R)-2-((1-(2-(4,4-difluoropiperidin-1-yl)-3,6-dimethyl-4-oxo-3,4-dihydroquinazolin-8-yl)ethyl)amino)-5-fluoro-N-(methyl-sulfonyl)benzamide], the IC50 in assay [1] was 1 to 5 µM; on PI3Kα it was at least 1 µM; in assay [2], 1 to 5 µM; at PI3Kα H1047R it was below 0.1 µM.
On to `Cc1cc([C@@H](C)Nc2ccc(Cl)nc2C(=O)NS(C)(=O)=O)c2nc(N3CCC3)n(C)c(=O)c2c1` [Compound 15], for which the IC50 was 1 to 5 µM in assay [1], at least 1 µM at PI3Kα, 0.25 to 0.5 µM in assay [2] and 0.25 to 0.5 µM at PI3Kα H1047R.
On to `Cc1cc([C@@H](C)Nc2ccc(Cl)nc2C(=O)NS(C)(=O)=O)c2nc(N3Cc4cnn(CC5CC5)c4C3)n(C)c(=O)c2c1` [Compound 47, (R)-6-chloro-3-((1-(2-(1-(cyclopropylmethyl)-4,6-dihydropyrrolo[3,4-c]pyrazol-5(1H)-yl)-3,6-dimethyl-4-oxo-3,4-dihydroquinazolin-8-yl)ethyl)amino)-N-(methylsulfonyl) picolinamide], for which the IC50 in assay [1] is 1 to 5 µM; on PI3Kα, 0.5 to 1 µM; in assay [2], below 0.25 µM; on PI3Kα H1047R it was below 0.1 µM.
As for `Cc1cc([C@@H](C)Nc2ccc(Cl)nc2C(=O)NS(C)(=O)=O)c2nc(N3CCOC[C@H]3C)n(C)c(=O)c2c1` [Compound 55, 6-chloro-3-(((R)-1-(3,6-dimethyl-2-((R)-3-methylmorpholino)-4-oxo-3,4-dihydroquinazolin-8-yl)ethyl)amino)-N-(methylsulfonyl) picolinamide], the IC50 in assay [1] was 1 to 5 µM; on PI3Kα, at least 1 µM; in assay [2], below 0.25 µM; at PI3Kα H1047R it was 0.5 to 1 µM.
Take `Cc1cc([C@@H](C)Nc2ccc(Cl)nc2C(=O)NS(C)(=O)=O)c2nc(-c3ccc(F)cn3)n(C)c(=O)c2c1` [Compound 88, (R)-6-chloro-3-((1-(2-(5-fluoropyridin-2-yl)-3,6-dimethyl-4-oxo-3,4-dihydroquinazolin-8-yl)ethyl)amino)-N-(methylsulfonyl) picolinamide]: the IC50 is 1 to 5 µM in assay [1], at least 1 µM at PI3Kα, 0.25 to 0.5 µM in assay [2] and at least 1 µM at PI3Kα H1047R.
Turning to `Cc1cc([C@@H](C)Nc2ccc(Cl)nc2C(=O)NS(C)(=O)=O)c2nc(NC3CCC3)n(C)c(=O)c2c1` [Compound 10, (R)-6-chloro-3-((1-(2-(cyclobutylamino)-3,6-dimethyl-4-oxo-3,4-dihydroquinazolin-8-yl)ethyl)amino)-N-(methylsulfonyl) picolinamide], the IC50 was at least 5 µM in assay [1], at least 1 µM on PI3Kα, 1 to 5 µM in assay [2] and 0.25 to 0.5 µM on PI3Kα H1047R.
As to `Cc1cc([C@H](C)Nc2ccccc2S(N)(=O)=O)c2nc(N3Cc4ccc(F)cc4C3)n(C)c(=O)c2c1` (single isomer, unassigned) [Compound 105, 2-((1-(2-(5-fluoroisoindolin-2-yl)-3,6-dimethyl-4-oxo-3,4-dihydroquinazolin-8-yl)ethyl)amino) benzenesulfonamide], the IC50 in assay [1] was at least 5 µM; on PI3Kα it was at least 1 µM; in assay [2], 1 to 5 µM; on PI3Kα H1047R it was at least 1 µM.
